The numbers were not newly measured in patent US6532437B1, “Crystalline frap complex” (Cornell Research Foundation, Inc., priority 1996, dated 2003), which cites them from elsewhere.

Data set [1] relates to spontaneous SLE in MRL/lpr-mice.
In data set [2] the test system is Chronic GVHD in BDF1 mice. The note with it: BDF1 mice given DBA/2 spleen:lymph node cells.

As to `O=P1(N(CCCl)CCCl)NCCCO1` (centres unmarked) [cyclophosphamide], the “effect on course of disease” value in data set [1] was “can prevent and reverse the course of disease”. In data set [2], the “activity in CGVHD model” value is recorded as “active”. As to `Cc1oncc1C(=O)Nc1ccc(C(F)(F)F)cc1` [leflunomide], the “effect on course of disease” value in data set [1] was “can prevent and reverse the course of disease”. In addition, in data set [2], the “activity in CGVHD model” value is given as “active”.

Turning to `C[C@]12C=CC(=O)C=C1CC[C@@H]1[C@@H]2[C@@H](O)C[C@@]2(C)[C@H]1CC[C@]2(O)C(=O)CO` [prednisolone], the “activity in CGVHD model” value in data set [2] is “active”.
